*1 amine or outer side, *2 acyl side, *3 side chain or, on linkers, in order; H or OH if unused. Side-chain parts run from the residue outwards. [ ]: non-standard residue; d: D form. The star is where a group is joined. γGlu = O=C(O)[C@H](CCC(=O)[*:2])N[*:1]; Stearoyl = CCCCCCCCCCCCCCCCCC(=O)*; Palmitoyl = CCCCCCCCCCCCCCCC(=O)*; AEEA = NCCOCCOCC(=O)O; Aib = CC(C)(N)C(=O)O
B1: Comparative Example Compound 9 (peptide)
peptide: H-H[Aib]QGTFTSDK([AEEA-AEEA-γGlu-Stearoyl])SKYLD[Aib]RRAQDFVQWLMNTKEYEK(Palmitoyl)EYE-OH
SMILES: CCCCCCCCCCCCCCCCCC(=O)N[C@@H](CCC(=O)NCCOCCOCC(=O)NCCOCCOCC(=O)NCCCC[C@H](NC(=O)[C@H](CC(=O)O)NC(=O)[C@H](CO)NC(=O)[C@@H](NC(=O)[C@H](Cc1ccccc1)NC(=O)[C@@H](NC(=O)CNC(=O)[C@H](CCC(N)=O)NC(=O)C(C)(C)NC(=O)[C@@H](N)Cc1c[nH]cn1)[C@@H](C)O)[C@@H](C)O)C(=O)N[C@@H](CO)C(=O)N[C@@H](CCCCN)C(=O)N[C@@H](Cc1ccc(O)cc1)C(=O)N[C@@H](CC(C)C)C(=O)N[C@@H](CC(=O)O)C(=O)NC(C)(C)C(=O)N[C@@H](CCCNC(=N)N)C(=O)N[C@@H](CCCNC(=N)N)C(=O)N[C@@H](C)C(=O)N[C@@H](CCC(N)=O)C(=O)N[C@@H](CC(=O)O)C(=O)N[C@@H](Cc1ccccc1)C(=O)N[C@H](C(=O)N[C@@H](CCC(N)=O)C(=O)N[C@@H](Cc1c[nH]c2ccccc12)C(=O)N[C@@H](CC(C)C)C(=O)N[C@@H](CCSC)C(=O)N[C@@H](CC(N)=O)C(=O)N[C@H](C(=O)N[C@@H](CCCCN)C(=O)N[C@@H](CCC(=O)O)C(=O)N[C@@H](Cc1ccc(O)cc1)C(=O)N[C@@H](CCC(=O)O)C(=O)N[C@@H](CCCCNC(=O)CCCCCCCCCCCCCCC)C(=O)N[C@@H](CCC(=O)O)C(=O)N[C@@H](Cc1ccc(O)cc1)C(=O)N[C@@H](CCC(=O)O)C(=O)O)[C@@H](C)O)C(C)C)C(=O)O
B2: Comparative Example Compound 10 (peptide)
peptide: H-H[Aib]QGTFTSDK([AEEA-AEEA-γGlu-Stearoyl])SKYLD[Aib]RRAQDFVQWLMNTKEYEK(13‑aminocarboxy‑1‑oxotridecyl)EYE-OH
B3: Compound 2 (peptide)
peptide: H-H[Aib]QGTFTSDK([AEEA-AEEA-γGlu-Stearoyl])SKYLD[Aib]RRAQDFVQWLMNTKEYEK(15‑carboxy‑1‑oxopentadecyl)EYE-OH
B4: Comparative Example Compound 11 (peptide)
peptide: H-H[Aib]QGTFTSDK([AEEA-AEEA-γGlu-Stearoyl])SKYLD[Aib]RRAQDFVQWLMNTKEYEK(15‑aminocarboxy‑1‑oxopentadecyl)EYE-OH
B5: Comparative Example Compound 12 (peptide)
peptide: H-H[Aib]QGTFTSDK([AEEA-AEEA-γGlu-Stearoyl])SKYLD[Aib]RRAQDFVQWLMNTKEYEK([AEEA-AEEA-AEEA-Palmitoyl])EYE-OH
SMILES: CCCCCCCCCCCCCCCCCC(=O)N[C@@H](CCC(=O)NCCOCCOCC(=O)NCCOCCOCC(=O)NCCCC[C@H](NC(=O)[C@H](CC(=O)O)NC(=O)[C@H](CO)NC(=O)[C@@H](NC(=O)[C@H](Cc1ccccc1)NC(=O)[C@@H](NC(=O)CNC(=O)[C@H](CCC(N)=O)NC(=O)C(C)(C)NC(=O)[C@@H](N)Cc1c[nH]cn1)[C@@H](C)O)[C@@H](C)O)C(=O)N[C@@H](CO)C(=O)N[C@@H](CCCCN)C(=O)N[C@@H](Cc1ccc(O)cc1)C(=O)N[C@@H](CC(C)C)C(=O)N[C@@H](CC(=O)O)C(=O)NC(C)(C)C(=O)N[C@@H](CCCNC(=N)N)C(=O)N[C@@H](CCCNC(=N)N)C(=O)N[C@@H](C)C(=O)N[C@@H](CCC(N)=O)C(=O)N[C@@H](CC(=O)O)C(=O)N[C@@H](Cc1ccccc1)C(=O)N[C@H](C(=O)N[C@@H](CCC(N)=O)C(=O)N[C@@H](Cc1c[nH]c2ccccc12)C(=O)N[C@@H](CC(C)C)C(=O)N[C@@H](CCSC)C(=O)N[C@@H](CC(N)=O)C(=O)N[C@H](C(=O)N[C@@H](CCCCN)C(=O)N[C@@H](CCC(=O)O)C(=O)N[C@@H](Cc1ccc(O)cc1)C(=O)N[C@@H](CCC(=O)O)C(=O)N[C@@H](CCCCNC(=O)COCCOCCNC(=O)COCCOCCNC(=O)COCCOCCNC(=O)CCCCCCCCCCCCCCC)C(=O)N[C@@H](CCC(=O)O)C(=O)N[C@@H](Cc1ccc(O)cc1)C(=O)N[C@@H](CCC(=O)O)C(=O)O)[C@@H](C)O)C(C)C)C(=O)O

Columns and labels:
in vivo [1] = conditions: ICR, mouse, sc
Excerpt: ICR mice were used to evaluate the pharmacokinetics in mice of the acylated oxyntomodulin peptide analogs according to the present invention.

in vivo [2] = conditions: cynomolgus monkey, sc
Excerpt: Cynomolgus monkeys were used to evaluate the pharmacokinetics in monkeys of the acylated oxyntomodulin peptide analogs according to the present invention.

GLP-1 receptor = GLP-1 receptor (Homo sapiens, UniProt P43220); assay: Human GLP-1 receptor activation assay (CRE-luciferase); type: cell-based; parameters: host or cells: CHO-K1; conditions: for Emax: CHO-K1, 6 h, read-out: GLP-1 receptor Maximum activation (% vs GLP-1); for EC50: CHO-K1 cells transiently transfected, luciferase, 6 hours, 0.1% BSA
GLP-1 receptor, sequence (P43220 24-463): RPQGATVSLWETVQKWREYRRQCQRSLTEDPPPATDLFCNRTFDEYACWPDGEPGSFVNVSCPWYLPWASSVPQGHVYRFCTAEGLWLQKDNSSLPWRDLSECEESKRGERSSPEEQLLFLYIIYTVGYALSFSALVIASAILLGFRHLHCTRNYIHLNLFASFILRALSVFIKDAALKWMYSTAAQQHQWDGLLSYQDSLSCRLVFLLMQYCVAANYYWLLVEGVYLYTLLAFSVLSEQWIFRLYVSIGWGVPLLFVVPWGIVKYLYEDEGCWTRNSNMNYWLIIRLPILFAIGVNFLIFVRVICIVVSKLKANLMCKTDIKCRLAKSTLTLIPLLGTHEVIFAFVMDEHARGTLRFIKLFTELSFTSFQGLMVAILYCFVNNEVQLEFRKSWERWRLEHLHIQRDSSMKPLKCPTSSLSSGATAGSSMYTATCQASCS
Protocol: (§1) Then, the resulting increased luciferase activity was evaluated as a measurement of the effect on each receptor activation.
(§2) For positive control, endogenous ligand GLP-1 or glucagon was used for respective evaluation. The above-mentioned acylated oxyntomodulin peptide analogs of Comparative Example 8-12 were synthesized and used as comparative examples.
(§3) After 3 hours of transfection, medium was exchanged to Alpha Minimal Essential Medium (α-MEM) comprising 10% fetal bovine serum (FBS). Next day, the medium was exchanged to α-MEM comprising the acylated oxyntomodulin peptide analog of the present invention and 0.1% bovine serum albumin (BSA). After 6 hours, dual luciferase assay reagent (Promega) was added in the same amount as the medium in which the cells were submerged, and firefly luciferase and Renilla luciferase activities were successively measured. Firefly luciferase activity values were corrected against Renilla luciferase activity to yield transfection efficiency.

glucagon receptor = glucagon receptor (Homo sapiens, UniProt P47871); assay: Human glucagon receptor activation assay (CRE-luciferase); type: cell-based; parameters: host or cells: CHO-K1; conditions: CHO-K1 cells transiently transfected; for Emax: 6 h, relative to glucagon, read-out: GCG receptor Maximum activation (% vs GCG); for EC50: 6 hours, 0.1% BSA, read-out: GCG receptor EC50
glucagon receptor, sequence (P47871 26-477): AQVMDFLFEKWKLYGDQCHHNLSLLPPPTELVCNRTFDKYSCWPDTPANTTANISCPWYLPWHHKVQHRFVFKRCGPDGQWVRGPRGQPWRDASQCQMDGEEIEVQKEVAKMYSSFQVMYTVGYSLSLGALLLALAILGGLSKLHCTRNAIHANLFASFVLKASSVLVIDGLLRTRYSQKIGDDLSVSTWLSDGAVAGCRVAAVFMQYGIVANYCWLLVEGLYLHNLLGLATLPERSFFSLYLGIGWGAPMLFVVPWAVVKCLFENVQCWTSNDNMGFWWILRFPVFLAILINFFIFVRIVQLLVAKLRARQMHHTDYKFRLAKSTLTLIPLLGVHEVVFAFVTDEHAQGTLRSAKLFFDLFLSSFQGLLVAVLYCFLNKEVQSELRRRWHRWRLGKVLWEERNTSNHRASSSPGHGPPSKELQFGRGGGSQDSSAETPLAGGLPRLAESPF
Protocol: as §1, §2, §3

Human glucagon receptor = Human glucagon receptor (human, UniProt P47871); assay: cell-based or functional assay
Human GLP-1 receptor = Human GLP-1 receptor (human, UniProt P43220); assay: cell-based or functional assay

Molecule	half-life (in vivo [1]; Mouse PK (S.C. half-life)) [min]	half-life (in vivo [1]; half-life in mice) [min]	half-life (in vivo [2]; Monkey PK (S.C. half-life)) [min]	half-life (in vivo [2]; monkey PK half-life) [min]	Emax (GLP-1 receptor) [%]	EC50 (GLP-1 receptor) [nM]	Emax (glucagon receptor) [%]	EC50 (glucagon receptor) [nM]	Maximum activation (% vs GCG) (Human glucagon receptor) [%]	Maximum activation (% vs GLP-1) (Human GLP-1 receptor) [%]	EC50 (Human glucagon receptor) [pM]	EC50 (Human GLP-1 receptor) [pM]
CCCCCCCCCCCCCCCCCC(=O)N[C@@H](CCC(=O)NCCOCCOCC(=O)NCCOCCOCC(=O)NCCCC[C@H](NC(=O)[C@H](CC(=O)O)NC(=O)[C@H](CO)NC(=O)[C@@H](NC(=O)[C@H](Cc1ccccc1)NC(=O)[C@@H](NC(=O)CNC(=O)[C@H](CCC(N)=O)NC(=O)C(C)(C)NC(=O)[C@@H](N)Cc1c[nH]cn1)[C@@H](C)O)[C@@H](C)O)C(=O)N[C@@H](CO)C(=O)N[C@@H](CCCCN)C(=O)N[C@@H](Cc1ccc(O)cc1)C(=O)N[C@@H](CC(C)C)C(=O)N[C@@H](CC(=O)O)C(=O)NC(C)(C)C(=O)N[C@@H](CCCNC(=N)N)C(=O)N[C@@H](CCCNC(=N)N)C(=O)N[C@@H](C)C(=O)N[C@@H](CCC(N)=O)C(=O)N[C@@H](CC(=O)O)C(=O)N[C@@H](Cc1ccccc1)C(=O)N[C@H](C(=O)N[C@@H](CCC(N)=O)C(=O)N[C@@H](Cc1c[nH]c2ccccc12)C(=O)N[C@@H](CC(C)C)C(=O)N[C@@H](CCSC)C(=O)N[C@@H](CC(N)=O)C(=O)N[C@H](C(=O)N[C@@H](CCCCN)C(=O)N[C@@H](CCC(=O)O)C(=O)N[C@@H](Cc1ccc(O)cc1)C(=O)N[C@@H](CCC(=O)O)C(=O)N[C@@H](CCCCNC(=O)CCCCCCCCCCCCCCCCC(N)=O)C(=O)N[C@@H](CCC(=O)O)C(=O)N[C@@H](Cc1ccc(O)cc1)C(=O)N[C@@H](CCC(=O)O)C(=O)O)[C@@H](C)O)C(C)C)C(=O)O [Compound 7]	> 360	> 360	> 1440	> 1440	90.8	< 0.1	100	< 0.1				
CCCCCCCCCCCCCCCCCC(=O)N[C@@H](CCC(=O)NCCOCCOCC(=O)NCCOCCOCC(=O)NCCCC[C@H](NC(=O)[C@H](CC(=O)O)NC(=O)[C@H](CO)NC(=O)[C@@H](NC(=O)[C@H](Cc1ccccc1)NC(=O)[C@@H](NC(=O)CNC(=O)[C@H](CCC(N)=O)NC(=O)C(C)(C)NC(=O)[C@@H](N)Cc1c[nH]cn1)[C@@H](C)O)[C@@H](C)O)C(=O)N[C@@H](CO)C(=O)N[C@@H](CCCCN)C(=O)N[C@@H](Cc1ccc(O)cc1)C(=O)N[C@@H](CC(C)C)C(=O)N[C@@H](CC(=O)O)C(=O)NC(C)(C)C(=O)N[C@@H](CCCNC(=N)N)C(=O)N[C@@H](CCCNC(=N)N)C(=O)N[C@@H](C)C(=O)N[C@@H](CCC(N)=O)C(=O)N[C@@H](CC(=O)O)C(=O)N[C@@H](Cc1ccccc1)C(=O)N[C@H](C(=O)N[C@@H](CCC(N)=O)C(=O)N[C@@H](Cc1c[nH]c2ccccc12)C(=O)N[C@@H](CC(C)C)C(=O)N[C@@H](CCSC)C(=O)N[C@@H](CC(N)=O)C(=O)N[C@H](C(=O)N[C@@H](CCCCN)C(=O)O)[C@@H](C)O)C(C)C)C(=O)O [Compound 8]	< 360				99.3	< 0.1	103	< 0.1				
CCCCCCCCCCCCCCCCCC(=O)N[C@@H](CCC(=O)NCCOCCOCC(=O)NCCOCCOCC(=O)NCCCC[C@H](NC(=O)[C@H](CC(=O)O)NC(=O)[C@H](CO)NC(=O)[C@@H](NC(=O)[C@H](Cc1ccccc1)NC(=O)[C@@H](NC(=O)CNC(=O)[C@H](CCC(N)=O)NC(=O)C(C)(C)NC(=O)[C@@H](N)Cc1c[nH]cn1)[C@@H](C)O)[C@@H](C)O)C(=O)N[C@@H](CO)C(=O)N[C@@H](CCCCN)C(=O)N[C@@H](Cc1ccc(O)cc1)C(=O)N[C@@H](CC(C)C)C(=O)N[C@@H](CC(=O)O)C(=O)NC(C)(C)C(=O)N[C@@H](CCCNC(=N)N)C(=O)N[C@@H](CCCNC(=N)N)C(=O)N[C@@H](C)C(=O)N[C@@H](CCC(N)=O)C(=O)N[C@@H](CC(=O)O)C(=O)N[C@@H](Cc1ccccc1)C(=O)N[C@H](C(=O)N[C@@H](CCC(N)=O)C(=O)N[C@@H](Cc1c[nH]c2ccccc12)C(=O)N[C@@H](CC(C)C)C(=O)N[C@@H](CCSC)C(=O)N[C@@H](CC(N)=O)C(=O)N[C@H](C(=O)N[C@@H](CCCCN)C(=O)N[C@@H](CCC(=O)O)C(=O)N[C@@H](Cc1ccc(O)cc1)C(=O)N[C@@H](CCC(=O)O)C(=O)N[C@@H](CCCCNC(=O)CCCCCCCCCCCCC(=O)O)C(=O)N[C@@H](CCC(=O)O)C(=O)N[C@@H](Cc1ccc(O)cc1)C(=O)N[C@@H](CCC(=O)O)C(=O)O)[C@@H](C)O)C(C)C)C(=O)O [Compound 1]	> 360	> 360	720 to 1080	> 720	102	< 0.1	107	< 0.1				
B1									73.3	70.4		
B2									110	105	< 100	< 100
B3									100	104		
B4									98.5	92.8	< 100	< 100
B5									89.6	102	< 100	< 100

Reference: US20230220035A1 (DONG-A ST CO., LTD., published 2023)
